Where a name gives a salt, the structure may show the parent alone.
How the values were obtained:
[1] = sequoyitol isolated from Taxus chinensis; cited from earlier work
diabetes models = details: sequoyitol isolated from Taxus chinensis; cited from earlier work
Solubility in water = assay type: physicochemical
Procedure: The sequoyitol was dissolved in water and sterilized by filtration. Solutions for injection were prepared according to the preparation process of solutions for injection. Powder for injection was prepared according to the preparation process of lyophilized powder for injection.

[2] = test system: elevated level of blood glucose induced by Alloxan in mice; assay: Effect on the elevated level of blood glucose induced by alloxan in mice; assay type: in vivo; details: 75 mg/kg for 7 days
Procedure: Animals: 100 male mice weighed 22-25 g, Positive control: Phenformin Hydrochloride (Jiangsu Yabang Pharmaceutical (group) Co., Ltd.),
20 mice were randomly selected as the blank group. Others were injected intravenously with Alloxan via caudal vein at a dose of 65 mg/kg body weight, and then modeled according to established methods. The mice were divided into 4 groups according to their level of blood glucose, in which 3 groups were administered with 60 mg/kg of the plant extract, 75 mg/kg of Phenformin Hydrochloride, or 60 mg/kg of sequoyitol-containing Taxus chinensis extract respectively for 7 days, in a volume of 0.1 ml/10 g body weight. The same volume of distilled water was administered to the blank group and the control group. Blood glucose was determined using glucose oxidase method.

Row | Solubility in water (Solubility in water) | Compound | Toxicity [1] | Effect on breakdown of hepatic glycogen and absorption of glucose (diabetes models) | Effect on high glycemia in diabetes models (diabetes models) | Decrease of alloxan-induced hyperglycemia in comparison to the control group [2] [mg/dL]
1 | well soluble in water | CO[C@H]1[C@H](O)[C@@H](O)[C@@H](O)[C@@H](O)[C@@H]1O [Sequoyitol, sequoyitol] | very low toxicity | inhibits the breakdown of hepatic glycogen and the absorption of glucose | remarkably decreases high glycemia | 
2 |  | [H]/N=C(/N)N/C(=N/[H])NCCc1ccccc1 [Phenformin Hydrochloride] |  |  |  | 155.8

— patent US20100197803A1, “METHOD FOR OBTAINING A SEQUOYITOL-CONTAINING EXTRACT FROM A PLANT OF THE GENUS OF TRIFOLIUM, LEGUMINOSAE OR GINKOACEAE AND USES THEREOF” (LIANCHUANGSIYUANLI BIOLOGY AND SCIENCE AND TECHNOLOGY CO., …, priority 2007, published 2010)
